Like-named read-outs stand apart in the source and are kept apart here.
Tests used:
[1] = biological target: T1, AChE (Electric-eel EC 3.1.1.7) (Electrophorus electricus, UniProt O42275); test: biochemical
T1 construct: purchased Sigma-Aldrich (St. Louis, MO, USA)

[2] = biological target: T2, BChE (horse serum EC 3.1.1.8) (Equus caballus, UniProt P81908); test: biochemical
T2 construct: purchased Sigma-Aldrich (St. Louis, MO, USA); host or cells: horse serum

[3] = read-out: AChE ± SEM (IC50); Electric-eel AChE; SEM of five assays
[4] = read-out: BChE ± SEM (IC50), SEM of five assays

T2 sequence (P81908 whole entry): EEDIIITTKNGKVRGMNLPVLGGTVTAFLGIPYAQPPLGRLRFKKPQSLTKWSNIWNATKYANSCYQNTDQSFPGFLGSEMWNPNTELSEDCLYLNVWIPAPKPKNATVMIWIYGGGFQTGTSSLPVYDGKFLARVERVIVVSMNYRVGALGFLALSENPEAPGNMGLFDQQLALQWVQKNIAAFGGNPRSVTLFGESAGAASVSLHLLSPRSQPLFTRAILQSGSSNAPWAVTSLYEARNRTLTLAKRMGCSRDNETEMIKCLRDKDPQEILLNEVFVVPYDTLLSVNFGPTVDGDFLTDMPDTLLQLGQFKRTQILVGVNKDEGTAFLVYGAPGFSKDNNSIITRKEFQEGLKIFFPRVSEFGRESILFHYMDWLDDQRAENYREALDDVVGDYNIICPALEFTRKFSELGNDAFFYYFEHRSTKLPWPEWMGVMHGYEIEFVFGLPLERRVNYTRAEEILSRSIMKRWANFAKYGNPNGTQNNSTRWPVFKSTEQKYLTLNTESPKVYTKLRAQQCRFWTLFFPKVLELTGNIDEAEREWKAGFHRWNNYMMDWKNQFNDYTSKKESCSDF
T1 sequence (O42275 24-633): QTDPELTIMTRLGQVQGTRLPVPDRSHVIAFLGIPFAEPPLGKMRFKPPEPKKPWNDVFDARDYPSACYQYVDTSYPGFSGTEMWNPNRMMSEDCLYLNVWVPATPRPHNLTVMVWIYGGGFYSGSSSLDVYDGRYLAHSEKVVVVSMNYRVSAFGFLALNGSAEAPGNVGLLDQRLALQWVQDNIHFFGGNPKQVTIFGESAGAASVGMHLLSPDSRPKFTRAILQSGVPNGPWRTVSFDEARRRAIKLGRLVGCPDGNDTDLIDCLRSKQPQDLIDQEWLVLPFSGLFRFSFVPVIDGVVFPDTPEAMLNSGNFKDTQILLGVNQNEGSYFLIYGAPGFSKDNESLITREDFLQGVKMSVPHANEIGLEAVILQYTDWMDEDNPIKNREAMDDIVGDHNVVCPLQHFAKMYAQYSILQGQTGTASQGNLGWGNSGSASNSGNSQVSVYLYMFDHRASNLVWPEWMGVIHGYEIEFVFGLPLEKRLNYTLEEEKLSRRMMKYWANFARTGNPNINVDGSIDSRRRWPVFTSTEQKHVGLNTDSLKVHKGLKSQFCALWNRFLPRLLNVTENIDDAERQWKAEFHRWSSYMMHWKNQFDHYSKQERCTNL

C=C1CC23CC(=O)C4C5(C)CC(O)C(O)C46C(C2C(=O)C1CC36O)N(C)C5 (stereo not drawn) [Compound 1, 9β-hydroxy hetidine] was tested, and the IC50 ([1]; Electric-eel AChE; SEM of five assays; read-out: AChE ± SEM (IC50)) was 13.9 ± 0.35 µM, the “Type of Inhibition” value ([1]; stated for inhibition of AChE and BChE; listed as Chitralinine A) was “Competitive” and the IC50 ([2]; SEM of five assays, read-out: BChE ± SEM (IC50)) was 28.2 ± 0.92 µM.

For C=C1CC23CC(=O)C4C56C(C2C(=O)C1(O)C(O)C35O)N(C)C(O)[C@]4(C)CC(O)[C@@H]6O (stereo partly drawn) [Compound 2, 9,11,12,19β- tetrahydoxy hetidine], the IC50 [1, 3] was 11.64 ± 0.08 µM, the “Type of Inhibition” value ([1]; stated for inhibition of AChE and BChE; listed as Chitralinine B) was “Competitive” and the IC50 [2, 4] was 24.3 ± 0.33 µM.

With C=C1CC23CC(=O)C4C5(C)CC(O)C(O)C46C(C2CC1(O)C(O)C36O)N(C)C5O (stereo not drawn) [Compound 3, 1α, 2, 9,11,12,19β-hexahydoxy atisinone] the IC50 [1, 3] was 12.1 ± 0.82 µM, the “Type of Inhibition” value ([1]; stated for inhibition of AChE and BChE; listed as Chitralinine-C) was “Competitive” and the IC50 [2, 4] was 26.35 ± 0.06 µM.

Source: paper PMC9325274, “In Vitro and In Silico Investigation of Diterpenoid Alkaloids Isolated from Delphinium chitralense” (Molecules, 2022)
